Reference: patent US20110251230A1, “THERAPEUTICS FOR NEUROLOGICAL DISORDERS” (UNIVERSITY OF SHEFFIELD, priority 2008, published 2011)
Counter-ions that a name gives are not always drawn. Like-named read-outs stand apart in the source and are kept apart here.

How the values were obtained:
[1] = system: NSC34 mouse motor neuronal cells; assay: NSC34 oxidative stress assay (serum withdrawal, DCF); details: for Maximal % reduction in Oxidative stress: NSC34, DCF fluorescence, negative = pro-oxidant; for Lowest dose with toxicity: NSC34
Method: (§1) A simple oxidative stress assay was used to determine whether preconditioning with NRF2-ARE inducing drugs could protect against a subsequent oxidative stress insult (serum withdrawal). The NSC34, C6 and 1321N1 cells were plated in 96 well tissue culture plates to achieve 30% confluency. […] Media was then replaced with serum free, phenol free media for 5 hrs. […] Cell survival assay was then performed on the cells as protection is measured as % reduction in DCF signal, therefore data points were excluded where a decrease in cell number was measured.
(§2) Briefly methylthiazolyldiphenyl-tetrazolium bromide (MTT) was added to the cells and a blank well to a final concentration 0.5 mg/ml and incubated at 37° C. for 1-3 hrs depending on the cell line used.

[2] = system: NRF2-ARE pathway in the CHO 4× ARE-TK cell line; assay: ARE reporter assay in CHO 4×ARE-TK-GFP cell line (GFP induction, EthD1 toxicity); details: for maximal fold induction: read-out: Average fold GFP induction at maximal response
Method: Chinese Hamster Ovary (CHO), NSC34 mouse motor neuronal cells, C6 (rat) and 1321N1 (human) astrocytic lines were routinely maintained in DMEM supplemented with 10% FBS and penicillin/streptomycin. […] These plasmids were transfected into CHO, C6 and 1321N1 cell lines using Lipofectamine 2000 (Invitrogen) and following 10-14 days of selection in 0.5 mg/ml G418 they were expanded and selected for basal eGFP expression using fluorescence activated cell sorting (BD, FACSAria) with two sequential cell sorts for each cell line. These mixed populations of stable transfectants with basal eGFP expression were used in subsequent assays and designated 4×ARE-TK-GFP for the ARE containing line and TK-GFP for the control cell line. […]
Confluent cultures of 4×ARE-TK-GFP CHO or TK-GFP CHO expressing cells in 96 or 384-well tissue-culture plates were treated with drug (0.01-100 µM in triplicate) or vehicle (0.1-1% DMSO) in FCS-free DMEM in triplicate for 24 hours. The media was removed and replaced with the same volume of PBS containing 0.3 μM EthD1. […] Non-linear regression was used to fit a sigmoidal dose-response curve on a semi-Log plot to calculate the EC50 using GraphPad Prism (GraphPad Software). The reporter assay was conducted in a similar fashion in C6 and 1321N1 astrocyte cell lines stably transfected with the 4×ARE-TK-GFP and TK-GFP constructs except that Eth D1 was added directly in the media and read prior to washing the cells once and reading the […] signal. […]
The compounds were applied in triplicate to confluent cells in 96 well plates in serum free medium for 24 hours and the induction of GFP measured in a fluorescence plate reader. […]

[3] = system: 1321N1 (human) astrocytic line; assay: 1321N1 oxidative stress assay (serum withdrawal, DCF); details: for Maximal % reduction in Oxidative stress: 1321N1, DCF fluorescence; for Lowest dose with toxicity: 1321N1; for IC50: 1321N1, 24 h pre-treatment, serum withdrawal, DCF
Method: as §1, §2

[4] = system: C6 (rat) astrocytic line; assay: C6 oxidative stress assay (serum withdrawal, DCF); details: for IC50: C6, 24 h pre-treatment, serum withdrawal, DCF; for Maximal % reduction in Oxidative stress: C6, DCF fluorescence; for Lowest dose with toxicity: C6
Method: as §1, §2

[5] = read-out: Average EC50, CHO 4×ARE-TK-GFP, GFP induction, 24 h
[6] = Cricetulus griseus, 24 h, read-out: Average EC50, CHO 4×ARE-TK-GFP, GFP induction, 24 h
[7] = Cricetulus griseus, 24 h, read-out: Average EC50

Compound	Lowest dose with toxicity ([2]; CHO ARE reporter assay)	IC50 [4]	Lowest dose with toxicity [1]	Lowest dose with toxicity [3]	Lowest dose with toxicity [4]	Lowest dose with toxicity ([2]; Chinese hamster, 24 h)	maximal fold induction ([2]; Cricetulus griseus, 24 h)	also measured
3-alpha-hydroxygedinin	100 µM	3.22 µM						Maximal % reduction in Oxidative stress [1]: 14%; Average fold GFP induction at maximal response ([2]; CHO 4×ARE-TK-GFP, 24 h): 3.01 fold; Maximal % reduction in Oxidative stress [3]: 25%; Maximal % reduction in Oxidative stress [4]: 42%
3β hydroxydeoxydesacetoxy-7-oxogedunin	30 µM	3.07 µM	3 µM	none	none			Maximal % reduction in Oxidative stress [1]: 0%; Average fold GFP induction at maximal response ([2]; CHO 4×ARE-TK-GFP, 24 h): 2.55 fold; EC50 [2, 5]: 8.71 µM; IC50 [3]: 3.96 µM; Maximal % reduction in Oxidative stress [3]: 62%; Maximal % reduction in Oxidative stress [4]: 67%
Cc1[nH]c2ccccc2c1CN(C)C [2 methyl gramine]	100 µM	32 µM	3 µM	none	none			Maximal % reduction in Oxidative stress [1]: −30%; Average fold GFP induction at maximal response ([2]; CHO 4×ARE-TK-GFP, 24 h): 2.27 fold; EC50 [2, 5]: 3 µM; IC50 [3]: 11 µM; Maximal % reduction in Oxidative stress [3]: 36%; Maximal % reduction in Oxidative stress [4]: 36%
COc1cc(O)c(C)c(O)c1 [2,6-dihydroxy-4-methoxytoluene]			none	none	10 µM	100 µM	3.05	
COc1cccc(O)c1O [3 methoxycatechol]			0.3 µM	none	10 µM	100 µM	3.28	
Cc1cc(O)c(C)c(O)c1C(=O)O [3 methylorsellinic acid]			0.3 µM	none	none	100 µM	2.87	
CC(=O)Oc1ccc(O)cc1 [4 acetoxyphenol]			none	none	none	100 µM	2.78	
O=C(/C=C/c1ccc(O)cc1)c1ccccc1 [4 hydroxychalcone]	None						1.88	EC50 [2, 6]: 3.53 µM
COc1ccc(/C=C/C(=O)c2ccccc2)cc1 [4 methoxychalcone]	100 µM	3.55 µM	none	none	none		2.13	EC50 [2, 7]: 15 µM; IC50 [3]: 3.6 µM
C=CC(C1=CC(=O)C(OC)=CC1=O)c1ccccc1 (stereo not drawn) [4-Methoxydalbergione]	100 µM	2.5 µM	none	none	none			Maximal % reduction in Oxidative stress [1]: −44%; Average fold GFP induction at maximal response ([2]; CHO 4×ARE-TK-GFP, 24 h): 2.11 fold; EC50 [2, 5]: 11 µM; Maximal % reduction in Oxidative stress [3]: 43%; Maximal % reduction in Oxidative stress [4]: 14%
CCc1cccc(CC)c1N(COC)C(=O)CCl [Alachlor]					none			
COc1cc(O)cc(OC)c1OC [Antiarol]			10 µM	none	10 µM	100 µM	1.64	
CN1CCc2cccc3c2[C@H]1Cc1ccc(O)c(O)c1-3 [Apomorphine hydrochloride, reference compound]			10 µM	none	none	100 µM	1.9	
S=C=NCc1ccccc1 [Benzyl Isothiocyanate]	None		none	none	none		1.81	
ClC1=C(Cl)C2(Cl)C3C(Cl)C(Cl)CC3C1(Cl)C2(Cl)Cl (stereo not drawn) [Chlordane]	100 µM	3.57 µM	3 µM	none	none		1.56	EC50 [2, 7]: 9.18 µM
CC1=C2C(=CO[C@H](C)[C@H]2C)C(O)=C(C(=O)O)C1=O [Citrinin]	30 µM	20 µM	none	none	none		3.26	EC50 [2, 7]: 4.1 µM; IC50 [3]: 0.338 µM
C=CC(C1=CC(=O)C=CC1=O)c1ccccc1 (stereo not drawn) [Dalbergione]			none	none	none	30 µM	2.09	
CC1(C)C(=O)C=C[C@]2(C)[C@H]3CC[C@@]4(C)[C@H](c5ccoc5)OC(=O)[C@H]5O[C@]54[C@]3(C)[C@H](O)C[C@@H]12 [Deacetylgedunin]	30 µM	5.36 µM	none	10 µM	none		3.05	EC50 [2, 7]: 3.5 µM; IC50 [3]: 2.37 µM
CC1(C)C2CC(=O)O[C@@]3(C)C4=CC(=O)O[C@@H](c5ccoc5)[C@]4(C)CCC3[C@@]2(C)C=C[C@H]1O (stereo partly drawn) [Deoxyandirobin lactone]			none	none	none	100 µM	3.03	
O=c1c2ccccc2[se]n1-c1ccccc1 [Ebselen, reference compound]			none	none	none	100 µM	2.81	
C=C(CC)C(=O)c1ccc(OCC(=O)O)c(Cl)c1Cl [Ethacrynic acid, reference compound]		3.01 µM	10 µM			100 µM		
CC(=O)O[C@@H]1CC2C(C)(C)C=CC(=O)[C@]2(C)C2CC[C@@]3(C)[C@H](c4ccoc4)OC(=O)C4OC43[C@@]21C (stereo partly drawn) [Isogedunin]	None		1 µM	none				Maximal % reduction in Oxidative stress [1]: 0%; Average fold GFP induction at maximal response ([2]; CHO 4×ARE-TK-GFP, 24 h): 3.11 fold; EC50 [2, 5]: 550 µM; Maximal % reduction in Oxidative stress [3]: 10%
O=C(/C=C/c1ccc(O)cc1)c1ccc(O)cc1O [Isoliquintigenin, Isoliquiritigenin]		~28 µM	1 µM	none	none	30 µM	2.58	
CC(COc1ccccc1)NC(C)C(O)c1ccc(O)cc1 (stereo not drawn) [Isoxsuprine hydrochloride, reference compound]		23 µM	none	none	none	100 µM	1.52	EC50 [2, 6]: 8.7 µM
CCCCCc1c2c(cc(O)c1C(=O)O)OC(=O)c1c(cc(OC)cc1C(=O)CCCC)O2 [Lobaric acid]			none	none	none	100 µM	2.53	
O=C(CCBr)N1CCN(C(=O)CCBr)CC1 [Pipobroman, reference compound]			none	10 µM	none	100 µM	3.21	
C=C(C)/C=C1/C=CC(=O)C(C)=C1 [Retusoquinone]			none	none	none	100 µM	2.04	EC50 [2, 6]: ~35 µM
CC(C)(C)c1cc(O)ccc1O [tBHQ, tert-Butyl Hydroquinone, reference compound]								toxicity at concentrations higher than peak expression [2]: signs of toxicity; fluorescence in the control TK-GFP cell line ([2]; control TK-GFP CHO cell line): No increase in fluorescence; concentration of peak ARE activation (GFP expression) ([2]; narrow window, 24 h, serum free medium): 10 µM
